EPA's ToxRefDB 2

Experiments:
rat [1] = details: Multigenerational reproductive toxicity study, sprague dawley, Oral, Feed, dose end: 2 generation
rat [2] = details: Subchronic oral toxicity in rodents, sprague dawley, Feed, dose end: 90 day, group: systemic
rabbit = details: Prenatal developmental toxicity study, new zealand white, Oral, Gavage/Intubation, dose end: 19 GD
rat [3] = details: Prenatal developmental toxicity study, sprague dawley, Oral, Gavage/Intubation, dose end: 15 GD
dog [4] = details: Chronic toxicity; beagle; Oral; Feed; dose end: 52 week; group: systemic; systemic / clinical chemistry / aspartate aminotransferase (ast/sgot) / aspartate aminotransferase (ast/sgot) + systemic / clinical …
dog [5] = details: Subchronic oral toxicity in nonrodent, beagle, Feed, dose end: 90 day, group: systemic, systemic / hematology / leukocyte (wbc) count differential / leukocyte (wbc) + systemic / hematology / mean corpuscular hemoglobin …
rat [6] = details: Combined chronic toxicity/carcinogenicity, sprague dawley, Oral, Feed, dose end: 24 month, group: systemic
rat [7] = details: Combined chronic toxicity/carcinogenicity; fischer; Inhalation; Whole-Body; dose end: 105 week; group: systemic; systemic / pathology microscopic / nose / atrophy + systemic / pathology microscopic / nose / inflammation + systemic / pathology …
rat [8] = details: Prenatal developmental toxicity study, sprague dawley, Oral, Gavage/Intubation, dose end: 15 GD; remark: listed apart in the source
[9] = group: offspring, systemic / in life observation / body weight / offspring (pup) weight
[10] = group: parental, systemic / in life observation / body weight / body weight gain
[11] = systemic / clinical chemistry / globulins / globulins + systemic / clinical chemistry / glucose / glucose + systemic / in life observation…
[12] = systemic / organ weight / spleen / absolute + systemic / organ weight / spleen / relative to body weight
[13] = group: developmental, systemic / in life observation / body weight / fetal weight + developmental / developmental malformation / other / other
[14] = group: maternal, reproductive / reproductive performance / aborted / aborted + systemic / in life observation / food consumption / food consumption + …
[15] = group: developmental, systemic / in life observation / body weight / fetal weight + developmental / developmental malformation / bone / unossified + developmental…
[16] = group: maternal, systemic / in life observation / body weight / body weight gain + systemic / in life observation / clinical signs / salivation + systemic / …
[17] = systemic / in life observation / body weight / body weight
[18] = group: developmental, developmental / developmental malformation / brain / dilated cerebral ventricle
[19] = group: maternal, systemic / in life observation / clinical signs / altered breathing rate + systemic / in life observation / clinical signs / lethargy + …

SMILES: COC(=O)c1ccccc1S(=O)(=O)NC(=O)N(C)c1nc(C)nc(OC)n1 [Tribenuron-methyl]
- LEL (rat [1]; [9]): 1.9 mg/kg/day
- NEL (rat [1]; [9]): < 1.9 mg/kg/day
- NOAEL (rat [1]; group: offspring, systemic / in life observation / body weight / offspring (pup) weight gain): 1.9 mg/kg/day
- LOAEL (rat [1]; group: offspring, systemic / in life observation / body weight / offspring (pup) weight gain + systemic / in life observation / body weight / offspring (pup) …): 19 mg/kg/day
- LEL (rat [1]; [10]): 19 mg/kg/day
- LOAEL (rat [1]; [10]): 21 mg/kg/day
- NEL (rat [1]; [10]): 1.9 mg/kg/day
- NOAEL (rat [1]; group: parental, systemic / in life observation / body weight / body weight gain + systemic / in life observation / body weight / body weight): 2.2 mg/kg/day
- LOAEL (rat [2]; [11]): 118 mg/kg/day
- NOAEL (rat [2]; [11]): 7 mg/kg/day
- LEL (rat [2]; [12]): 8 mg/kg/day
- NEL (rat [2]; [12]): < 8 mg/kg/day
- LOAEL (rabbit; group: developmental, systemic / in life observation / body weight / fetal weight): 80 mg/kg/day
- LEL (rabbit; [13]): 80 mg/kg/day
- NEL (rabbit; [13]): 20 mg/kg/day
- NOAEL (rabbit; [13]): 20 mg/kg/day
- LOAEL (rabbit; group: maternal, reproductive / reproductive performance / aborted / aborted + systemic / in life observation / food consumption / food consumption): 80 mg/kg/day
- LEL (rabbit; [14]): 80 mg/kg/day
- NEL (rabbit; [14]): 20 mg/kg/day
- NOAEL (rabbit; [14]): 20 mg/kg/day
- LOAEL (rat [3]; group: developmental, systemic / in life observation / body weight / fetal weight + developmental / developmental malformation / bone / unossified): 125 mg/kg/day
- LEL (rat [3]; [15]): 125 mg/kg/day
- NEL (rat [3]; [15]): 20 mg/kg/day
- NOAEL (rat [3]; [15]): 20 mg/kg/day
- LEL (rat [3]; [16]): 125 mg/kg/day
- LOAEL (rat [3]; [16]): 125 mg/kg/day
- NEL (rat [3]; [16]): 20 mg/kg/day
- NOAEL (rat [3]; [16]): 20 mg/kg/day
- LEL (dog [4]): 8.16 mg/kg/day
- LOAEL (dog [4]): 8.16 mg/kg/day
- NEL (dog [4]): 0.79 mg/kg/day
- NOAEL (dog [4]): 0.79 mg/kg/day
- LEL (dog [5]): 73.3 mg/kg/day
- LOAEL (dog [5]): > 73.3 mg/kg/day
- NEL (dog [5]): 14.9 mg/kg/day
- NOAEL (dog [5]): ≥ 73.3 mg/kg/day
- LEL (rat [6]; [17]): 1.25 mg/kg/day
- LOAEL (rat [6]; [17]): 12.5 mg/kg/day
- NEL (rat [6]; [17]): < 1.25 mg/kg/day
- NOAEL (rat [6]; systemic / in life observation / body weight / body weight + systemic / pathology microscopic / mammary gland / adenocarcinoma + systemic / …): 1.25 mg/kg/day

SMILES: c1ccc2ccccc2c1 [Naphthalene]
- LEL (rat [7]): 3.6 mg/kg/day
- LOAEL (rat [7]): 3.6 mg/kg/day
- NEL (rat [7]): < 3.6 mg/kg/day
- NOAEL (rat [7]): < 3.6 mg/kg/day
- LEL (rat [8]; [18]): 450 mg/kg/day
- LOAEL (rat [8]; [18]): > 450 mg/kg/day
- NEL (rat [8]; [18]): 150 mg/kg/day
- NOAEL (rat [8]; [18]): ≥ 450 mg/kg/day
- LEL (rat [8]; [19]): 50 mg/kg/day
- LOAEL (rat [8]; [19]): 50 mg/kg/day
- NEL (rat [8]; [19]): < 50 mg/kg/day
- NOAEL (rat [8]; [19]): < 50 mg/kg/day
